Laboratory results reported in ChEMBL document CHEMBL4828752, “Discovery of 1,2,4-triazine dithiocarbamate derivatives as NEDDylation agonists to inhibit gastric cancers” (Eur J Med Chem, 2021).
Activity calls are given as the source filed them. The rule behind the calls is not given here.

Experiments:
[1] = biological target: T1, NEDD8-activating enzyme E1 regulatory subunit (Homo sapiens) (UniProt Q13564); assay: Activation of NAE1-mediated neddylation in human MGC-803 cells assessed as increase in Cullin7-NEDD8 level incubated for 12 hrs by western blot analysis; type: cell-based; settings: filed as agonist, dose 1-3 µM
T1 sequence (whole entry): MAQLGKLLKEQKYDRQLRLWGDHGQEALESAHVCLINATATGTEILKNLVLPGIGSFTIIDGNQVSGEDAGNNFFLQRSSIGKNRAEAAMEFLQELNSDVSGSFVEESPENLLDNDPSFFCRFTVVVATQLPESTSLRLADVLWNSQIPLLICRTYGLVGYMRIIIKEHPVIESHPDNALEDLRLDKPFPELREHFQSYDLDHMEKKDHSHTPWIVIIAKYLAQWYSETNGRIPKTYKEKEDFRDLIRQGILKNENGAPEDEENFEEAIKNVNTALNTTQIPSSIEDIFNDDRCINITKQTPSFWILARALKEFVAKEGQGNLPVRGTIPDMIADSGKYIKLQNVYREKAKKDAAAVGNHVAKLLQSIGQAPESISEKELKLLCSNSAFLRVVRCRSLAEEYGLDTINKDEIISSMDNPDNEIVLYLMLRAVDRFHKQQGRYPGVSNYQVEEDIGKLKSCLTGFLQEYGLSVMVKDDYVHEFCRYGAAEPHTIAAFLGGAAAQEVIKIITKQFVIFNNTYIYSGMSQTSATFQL

[2] = biological target: T1, NEDD8-activating enzyme E1 regulatory subunit (Homo sapiens); assay: Activation of NAE1 in human HGC-27 cells assessed as decrease in c-Myc expression at 1 to 9 uM measured after 48 hrs by western blot analysis; type: cell-based; settings: filed as agonist, dose 1-9 µM
HGC-27 [3] = assay: Downregulation of phosphorylated LATS1 level in human HGC-27 cells at 1 to 9 uM measured after 48 hrs by western blot analysis; type: functional, cell-based; settings: dose 1-9 µM
[4] = biological target: T1, NEDD8-activating enzyme E1 regulatory subunit (Homo sapiens); assay: Activation of NAE1 in human MGC-803 cells assessed as PARP cleavage at 1 to 3 uM measured after 48 hrs by western blot analysis; type: cell-based; settings: filed as agonist, dose 1-3 µM
[5] = biological target: T1, NEDD8-activating enzyme E1 regulatory subunit (Homo sapiens); assay: Activation of NAE1-mediated protein degradation in human HGC-27 cells assessed as decrease in c-IAPI level at 9 uM measured after 48 hrs in the presence of proteosome inhibitor, MG132 by western blot analysis; type: cell-based
MGC-803 [6] = assay: Antiproliferative activity against human MGC-803 cells assessed as reduction in cell viability at 3 uM measured every 60 mins for 48 hrs in the presence of proteasome inhibitor, MG132 by xCELLigence based RTCA analysis; type: functional
MGC-803 [7] = assay: Induction of cell morphological changes in human MGC-803 cells at 3 uM measured after 48 hrs in the presence of NEDDylation inhibitor, MLN4924 by DAPI staining based fluorescence analysis; type: functional
HGC-27 [8] = assay: Induction of mitochondrial membrane potential depolarization in human HGC-27 cells at 1 to 9 uM measured after 48 hrs by JC-1 staining based flow cytometry analysis; type: functional, cell-based; settings: dose 1-9 µM
MGC-803 [9] = assay: Induction of G2/M phase arrest in human MGC-803 cells assessed as downregulation of cyclin B1 expression at 1 to 3 uM measured after 48 hrs by western blot analysis; type: functional, cell-based; settings: dose 1-3 µM
HGC-27 [10] = assay: Induction of G2/M phase arrest in human HGC-27 cells assessed as upregulation of p-histone H3 expression at 1 to 9 uM measured after 48 hrs by western blot analysis; type: functional, cell-based; settings: dose 1-9 µM
MGC-803 [11] = assay: Induction of G2/M phase arrest in human MGC-803 cells at 3 uM measured after 48 hrs in the presence of NEDDylation inhibitor, MLN4924 by flow cytometry; type: functional, cell-based
[12] = biological target: T1, NEDD8-activating enzyme E1 regulatory subunit (Homo sapiens); assay: Activation of NAE1-mediated protein degradation in human MGC-803 cells transfected with NEDD8 siRNA assessed as decrease in c-IAPI level at 3 uM measured after 48 hrs by western blot analysis; type: cell-based
[13] = biological target: T1, NEDD8-activating enzyme E1 regulatory subunit (Homo sapiens); assay: Activation of NAE1-mediated protein degradation in human MGC-803 cells transfected with NEDD8 siRNA assessed as decrease in YAP/TAZ level at 3 uM measured after 48 hrs by western blot analysis; type: cell-based

With `COc1cc(-c2nc(NC(=O)CSC(=S)N3CCN(C(=O)OC(C)(C)C)CC3)nnc2-c2ccc(C)cc2)cc(OC)c1OC` the Activity [1] was “Dose-Dependent Effect”, the Activity [2] was “Active” and the inhibition (HGC-27 [3]) was “Active”. For the same molecule, the Activity [4] was “Active”, the Activity [5] was “inactive” and the Activity (MGC-803 [6]) was “inactive”. For the same molecule, the Activity (MGC-803 [7]) was “inactive”, the Activity (HGC-27 [8]) was “Active” and the Activity (MGC-803 [9]) was “Active”. The Activity (HGC-27 [10]) was “Active”, the Activity (MGC-803 [11]) was “inactive” and the Activity [12] was “inactive”. The Activity [13] was “inactive”.
